Measurements as given in US11020333B2, “Organic compounds” (Givaudan SA, priority 2016, dated 2021).

Experiment: Determination of GC-odor threshold values (gas chromatograph with sniff port, panel of trained evaluators)
Conditions: absolute amount of compound delivered at the sniff port, identical conditions
Text: As used herein, “odor threshold value” means the lowest concentration of a vapour in the air which can be detected by smell. Generally speaking, it can be said that a compound with a low odor threshold value is more powerful than a compound with a high odor threshold value and thus allows the use of very low concentration in a fragrance composition to achieve an olfactory effect.
EXAMPLE 24: DETERMINATION OF GC-ODOR THRESHOLD VALUES
According to standard procedures known to the person skilled in the art, threshold values for volatile perfumery compounds are determined on a gas chromatograph equipped with a sniff port by a panel of trained evaluators. The lowest concentration smelled by each panelist is recorded as the individual threshold value expressed in ng (absolute amount of compound delivered at the sniff port).
Under identical conditions the odor threshold value for the individual compounds was measured.

SMILES	odor threshold value
CCCc1ccc2c(c1)CC(C)C2=O (centres unmarked) [2-methyl-5-propyl-2,3-dihydro-1H-inden-1-one]	0.98 ng
C=C(C)Cc1cccc2c1C(=O)C(C)C2 (centres unmarked) [2-methyl-7-(2-methylallyl)-2,3-dihydro-1H-inden-1-one]	4.96 ng
CC1Cc2cccc(C3CC3)c2C1=O (centres unmarked) [7-cyclopropyl-2-methyl-2,3-dihydro-1H-inden-1-one]	4.31 ng
CC(C)Cc1ccc2c(c1)CC(C)C2=O (centres unmarked) [Comparison Example 1, 5-isobutyl-2-methyl-2,3-dihydro-1H-inden-1-one]	1.56 ng
CCCc1cccc2c1CC(C)C2=O (centres unmarked) [Comparison Example 3, 2-methyl-4-propyl-2,3-dihydro-1H-inden-1-one]	6.25 ng
C=C(C)Cc1cccc2c1CC(C)C2=O (centres unmarked) [Comparison Example 5, 2-methyl-4-(2-methylallyl)-2,3-dihydro-1H-inden-1-one]	6.25 ng
CC1Cc2c(cccc2C2CC2)C1=O (centres unmarked) [Comparison Example 7, 4-cyclopropyl-2-methyl-2,3-dihydro-1H-inden-1-one]	31.7 ng
CC(C)Cc1ccc2c(c1)C(=O)C(C)C2 (centres unmarked) [Example 1, 6-isobutyl-2-methyl-2,3-dihydro-1H-inden-1-one]	0.06 ng
CCCc1ccc2c(c1)C(=O)C(C)C2 (centres unmarked) [Example 7, 2-methyl-6-propyl-2,3-dihydro-1H-inden-1-one]	0.04 ng
CC1Cc2ccc(C3CC3)cc2C1=O (centres unmarked) [Example 11, 6-cyclopropyl-2-methyl-2,3-dihydro-1H-inden-1-one]	0.46 ng
C=C(C)Cc1ccc2c(c1)C(=O)C(C)C2 (centres unmarked) [Example 22, 2-methyl-6-(2-methylallyl)-2,3-dihydro-1H-inden-1-one]	0.24 ng
